Experimental data taken from ChEMBL document CHEMBL1201862, “PubChem BioAssay data set” (2004).
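Five concentrations, 48 hours, 96-well plates. GI50: concentration for 50% inhibition of growth.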 Active and inactive are the calls of the source. Rule as the data show it: active = GI50 up to about 1.1 µM and inactive = higher.

Experiments:
Assay in all cases: growth of human tumour cells (NCI), 48 h
UO-31 = system: UO-31
KM12 = system: KM12
ACHN = system: ACHN
SNB-19 = system: SNB-19
MCF7 = system: MCF7
HCC 2998 = system: HCC 2998
SN12C = system: SN12C
MDA-MB-231 = system: MDA-MB-231
HCT-116 = system: HCT-116
SK-MEL-28 = system: SK-MEL-28
HL-60 = system: HL-60
TK-10 = system: TK-10
SK-OV-3 = system: SK-OV-3
OVCAR-8 = system: OVCAR-8
U-251 = system: U-251
HOP-62 = system: HOP-62
MOLT-4 = system: MOLT-4
M14 = system: M14
CCRF-CEM = system: CCRF-CEM

Measured: GI50

CC(=O)OC1C(C)OC(OC(=O)C2CCC3C(C2)OC2(CC(OC(=O)/C=C/c4ccccc4)C(C)CO2)C32CO2)C(OC2OC(C)C(O)C(OC(C)=O)C2O)C1O (stereo not given)
active: UO-31 0.499 µM | KM12 < 0.01 µM | ACHN < 0.0421 µM | SNB-19 < 0.01 µM | MCF7 < 0.01 µM | HCC 2998 < 0.01 µM | SN12C < 0.01 µM | MDA-MB-231 < 0.01 µM | HCT-116 < 0.01 µM | SK-MEL-28 < 0.01 µM | HL-60 < 0.01 µM | TK-10 0.0131 µM | SK-OV-3 < 0.01 µM | OVCAR-8 < 0.01 µM | U-251 < 0.01 µM | HOP-62 < 0.012 µM | MOLT-4 < 0.01 µM | M14 < 0.01 µM | CCRF-CEM < 0.01 µM

O=c1[nH]c(=O)n(C2OC(CO)C(O)C2O)cc1/N=N/NCc1ccccc1 (stereo not given)
inactive: UO-31 > 100 µM | KM12 > 100 µM | ACHN > 100 µM | SNB-19 > 100 µM | HCC 2998 > 100 µM | SN12C > 100 µM | HCT-116 > 62.2 µM | SK-MEL-28 > 100 µM | HL-60 > 64.3 µM | TK-10 > 100 µM | SK-OV-3 > 100 µM | OVCAR-8 > 100 µM | U-251 > 100 µM | HOP-62 > 100 µM | MOLT-4 > 100 µM | M14 > 100 µM | CCRF-CEM > 69.5 µM

Clc1cccc(-c2sc(-c3ccsc3)cc2Cc2ccsc2)c1
inactive: KM12 > 10 µM | MCF7 > 10 µM | HCC 2998 > 10 µM | SN12C > 10 µM | MDA-MB-231 > 10 µM | SK-MEL-28 > 10 µM | HL-60 > 10 µM | TK-10 > 10 µM | SK-OV-3 > 10 µM | OVCAR-8 > 10 µM | HOP-62 > 10 µM | MOLT-4 > 10 µM | M14 > 10 µM | CCRF-CEM > 10 µM

CCCCCCCC(=O)OCC1OC(n2cc(F)c(=O)[nH]c2=O)C(N)C(OC(=O)CCCCCCC)C1O (stereo not given)
inactive: UO-31 19.5 µM | KM12 21.2 µM | ACHN 20.2 µM | SNB-19 17.5 µM | HCC 2998 16.5 µM | SN12C 17.5 µM | HCT-116 19.5 µM | SK-MEL-28 17.3 µM | HL-60 20.2 µM | TK-10 23.4 µM | SK-OV-3 28.8 µM | OVCAR-8 17.8 µM | U-251 19.5 µM | HOP-62 18.6 µM | MOLT-4 15.5 µM | M14 17.9 µM | CCRF-CEM 17.6 µM

[O-][S+](Cc1cc2c(cc1Br)OCO2)c1ccccc1 (stereo not given)
inactive: UO-31 47.5 µM | KM12 17.9 µM | ACHN 64.6 µM | SNB-19 > 100 µM | HCC 2998 > 100 µM | SN12C 48 µM | HCT-116 44.9 µM | SK-MEL-28 98.2 µM | HL-60 21.4 µM | TK-10 > 100 µM | SK-OV-3 > 100 µM | OVCAR-8 41.4 µM | U-251 30.3 µM | HOP-62 > 100 µM | MOLT-4 26.5 µM | M14 48.2 µM | CCRF-CEM 19.6 µM

CCN(CC)C1CC(O[C@H]2C[C@](O)(C(=O)CO)Cc3c(O)c4c(c(O)c32)C(=O)c2c(OC)cccc2C4=O)OC(C)C1O (stereo not given in full)
active: UO-31 0.0604 µM | KM12 0.0577 µM | ACHN 0.0316 µM | SNB-19 0.103 µM | HCC 2998 0.0948 µM | SN12C 0.045 µM | HCT-116 0.0214 µM | SK-MEL-28 0.0764 µM | HL-60 0.106 µM | TK-10 0.0881 µM | SK-OV-3 0.299 µM | OVCAR-8 < 0.0262 µM | U-251 0.0509 µM | HOP-62 0.0887 µM | MOLT-4 0.0225 µM | M14 0.0982 µM | CCRF-CEM 0.122 µM

CCN(CC)CCCC(C)Nc1c2cc(OC)cc(C)c2nc2c(C)c(Cl)ccc12 (stereo not given)
inactive: UO-31 1.71 µM | KM12 1.64 µM | ACHN 1.69 µM | SNB-19 1.68 µM | HCC 2998 1.63 µM | SN12C 1.57 µM | HCT-116 1.86 µM | SK-MEL-28 1.95 µM | HL-60 2.15 µM | TK-10 1.73 µM | SK-OV-3 1.67 µM | OVCAR-8 1.78 µM | U-251 1.85 µM | HOP-62 1.66 µM | MOLT-4 1.74 µM | M14 2.02 µM | CCRF-CEM 1.47 µM

CN(C)CCN1CCc2c([nH]c3ccccc23)C1c1cccnc1 (stereo not given)
inactive: UO-31 40.9 µM | KM12 > 100 µM | ACHN 23 µM | SNB-19 > 100 µM | HCC 2998 > 100 µM | SN12C > 100 µM | HCT-116 > 100 µM | SK-MEL-28 > 100 µM | HL-60 > 100 µM | TK-10 > 100 µM | SK-OV-3 > 100 µM | OVCAR-8 > 100 µM | U-251 > 100 µM | HOP-62 > 100 µM | MOLT-4 > 100 µM | M14 > 100 µM | CCRF-CEM > 100 µM
